Results taken from patent US7772246B2 (Pfizer Inc., priority 2007, dated 2010).

Columns and labels:
[1] = target: T1, b-Raf (Homo sapiens, UniProt P15056); assay: Raf biochemical assay (in vitro kinase assay, 32-P transfer from ATP to Mek1); conditions: full-length wild type b-Raf, Mek1 substrate; for Ki: 25 μM ATP
T1 construct: Full-length wild type b-Raf is expressed in recombinant form and purified from bacterial or insect cells; made in house; host or cells: bacterial or insect cells
Description: Compounds of the present invention were evaluated for potency against b-Raf using an in vitro kinase assay. Raf kinase activity is measured in vitro by determining transfer of radiolabeled 32-P phosphate from ATP to the specific Raf substrate Mek1. Full-length wild type b-Raf is expressed in recombinant form and purified from bacterial or insect cells. Recombinant Mek1 is purified from E. coli bacterial cells. In one assay format (designated G1), the full-length wild type Mek1 is used as the b-Raf substrate. In a second assay format (designated G2), the full-length K97R Mek1 mutant is used as the b-Raf substrate.
In vitro kinase assays are performed in solution containing the following; 50 mM Hepes (pH 7.4), 5 nM b-Raf, 0.8 μM Mek1, 10 mM MgCl2, 25 μM ATP, 0.002% (v/v) Tween-20, 5 μg/mL leupeptin, 1.2 mM DTT, 2% (v/v) DMSO, 0.2-1.0 μCi [γ-^32P]ATP per well.
The assays are performed in wells of a 96 well polypropylene round bottom plate, each well containing 43.5 μL assay mix and 1.5 μL inhibitor compound or DMSO vehicle. 15 μL of b-Raf mix is added and the plate is shaken on a plate shaker and preincubated for 10 minutes at ambient temperature. The reaction is started by addition of 15 μL ATP mix and shaking. The reaction is terminated after 40 minutes by addition of 25 μL 0.5 M EDTA (pH 7.4).
60 μL of the stopped reaction is transferred to a well of a 96-well nylon 66 Biodyne A membrane Silent Screen filter plate (Nalge/Nunc: 256081). The wells are filtered and washed five times with 0.85% phosphoric acid. The filter is placed in a tray with about 50 mL 0.85% phosphoric acid and gently rotated for 10 minutes on an orbital shaker. The procedure is repeated once with fresh 0.85% phosphoric acid. Five samples of 0.5 μL of ATP mix are also spotted onto filter paper for calculation of specific activity. The filters are air dried for one hour and sandwiched between cellophane wrap on an Amersham Biosciences Storage Phosphor Screen and developed at least over night. The image is read using a Molecular Dynamics Storm 840 phosphoimager. Volumes of spots are calculated using ImageQuant5.1.
Raf kinase activity is calculated from the specific activity of [32-P] ATP, 32-P incorporation into Mek1, and the concentration of b-Raf.

[2] = target: T2, b-Raf (Homo sapiens, UniProt P15056, V600E); assay: Raf cellular assay (phospho-Mek1/2 ELISA in A2058 cells); assay type: cell-based; conditions: Table 2; human melanoma A2058 cells (b-Raf mutation), Mek1/2 Ser217/221 phosphorylation, 1 hour incubation; read-out: pMEK IC50
T2 construct: endogenous in cells; host or cells: A2058 human melanoma cells
In short: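 A2058 melanoma cells (B-Raf mutant), seeded overnight in 10% FBS DMEM, were exposed to compounds (11-point 1:3 series, duplicate) for 1 h at 37 °C. Lysates were captured on anti-Mek1-coated plates and Mek1/2 Ser217/221 phosphorylation was read by anti-phospho-Mek1/2 ELISA, HRP/TMB, 450 nm.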

T1 sequence (P15056 whole entry): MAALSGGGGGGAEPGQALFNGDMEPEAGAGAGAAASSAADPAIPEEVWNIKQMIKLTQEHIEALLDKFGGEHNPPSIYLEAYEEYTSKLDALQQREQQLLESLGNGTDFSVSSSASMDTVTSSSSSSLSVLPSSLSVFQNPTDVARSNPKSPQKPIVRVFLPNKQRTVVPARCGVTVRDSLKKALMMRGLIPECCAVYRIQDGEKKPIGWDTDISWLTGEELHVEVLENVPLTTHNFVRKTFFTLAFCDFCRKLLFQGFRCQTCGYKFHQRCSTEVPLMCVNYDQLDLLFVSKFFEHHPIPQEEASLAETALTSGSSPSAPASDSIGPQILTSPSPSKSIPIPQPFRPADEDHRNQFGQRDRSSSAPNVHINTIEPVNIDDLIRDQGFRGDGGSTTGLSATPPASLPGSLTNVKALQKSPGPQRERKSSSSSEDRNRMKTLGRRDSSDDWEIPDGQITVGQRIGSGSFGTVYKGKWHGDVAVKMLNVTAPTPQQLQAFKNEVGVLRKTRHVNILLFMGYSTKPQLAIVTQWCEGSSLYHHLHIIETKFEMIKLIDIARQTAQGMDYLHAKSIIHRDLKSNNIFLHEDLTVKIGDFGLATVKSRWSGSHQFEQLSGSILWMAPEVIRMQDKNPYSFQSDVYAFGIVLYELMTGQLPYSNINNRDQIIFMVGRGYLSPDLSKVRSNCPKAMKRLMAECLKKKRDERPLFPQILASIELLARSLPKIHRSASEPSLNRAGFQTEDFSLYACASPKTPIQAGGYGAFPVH
T2 sequence (P15056 whole entry V600E): as the sequence (P15056 whole entry) above, with V600E counted along it

| Structure (SMILES) | inhibition at 1 µM ([1]; @ 1 μM compound, read-out: b-Raf % inhib @ 1 μM) | Ki [1] | IC50 [2] |
| --- | --- | --- | --- |
| C[C@H](O)CNc1nccc(-c2cn(CC(F)F)nc2-c2cnc3[nH]cc(Cl)c3c2)n1 [Example E-2, (2S)-1-(4-(3-(3-chloro-1H-pyrrolo[2,3-b]pyridin-5-yl)-1-(2,2-difluoroethyl)-1H-pyrazol-4-yl)pyrimidin-2-ylamino)propan-2-ol] | 100% | < 0.1 nM | 15 nM |
| Cc1[nH]c2ncc(-c3nn(C(C)C)cc3-c3ccnc(NC[C@H](C)O)n3)cc2c1Cl [Example E-3, (2S)-1-(4-(3-(3-chloro-2-methyl-1H-pyrrolo[2,3-b]pyridin-5-yl)-1-isopropyl-1H-pyrazol-4-yl)pyrimidin-2-ylamino)propan-2-ol] | – | 0.6 nM | 165 nM |
| C[C@H](O)CNc1nccc(-c2cn(CC3(C)COC3)nc2-c2cnc3[nH]cc(Cl)c3c2)n1 [Example E-4, (2S)-1-(4-(3-(3-chloro-1H-pyrrolo[2,3-b]pyridin-5-yl)-1-((3-methyloxetan-3-yl)methyl)-1H-pyrazol-4-yl)pyrimidin-2-ylamino)propan-2-ol] | – | 1.9 nM | 188 nM |
